Data published in the NIST ThermoML archive (doi:10.1016/j.jct.2016.11.007).

Assay: mn = molality of the nth substance listed, in mol/kg
Conditions: Liquid, Alternating current cell with electrodes

OB(O)O [boric acid] + O
Conditions	electrical conductivity [S/m]
298.15 K, 19767 kPa, m1 = 0.000461	2.9e-05
298.15 K, 19767 kPa, m1 = 0.001034	4.34e-05
298.15 K, 19767 kPa, m1 = 0.002214	7.29e-05
298.15 K, 19767 kPa, m1 = 0.003558	8.46e-05
298.15 K, 19767 kPa, m1 = 0.006801	0.000104
298.15 K, 19767 kPa, m1 = 0.01448	0.000141
298.15 K, 19767 kPa, m1 = 0.03227	0.000203
298.15 K, 19767 kPa, m1 = 0.05626	0.000261
298.15 K, 19767 kPa, m1 = 0.1313	0.000513
373.33 K, 19683 kPa, m1 = 0.002216	0.000155
373.33 K, 19683 kPa, m1 = 0.01449	0.000175
373.33 K, 19683 kPa, m1 = 0.02381	0.000262
373.33 K, 19683 kPa, m1 = 0.04334	0.000409
373.33 K, 19683 kPa, m1 = 0.07421	0.000597
448.23 K, 19666 kPa, m1 = 0.0004623	0.000302
448.23 K, 19666 kPa, m1 = 0.00294	0.000347
448.23 K, 19666 kPa, m1 = 0.00873	0.000421
448.23 K, 19666 kPa, m1 = 0.01287	0.000473
448.23 K, 19666 kPa, m1 = 0.0243	0.00059
448.23 K, 19666 kPa, m1 = 0.03791	0.000706
448.23 K, 19666 kPa, m1 = 0.07013	0.000939
448.23 K, 19666 kPa, m1 = 0.1015	0.00114
523.32 K, 19674 kPa, m1 = 0.0005523	0.000382
523.32 K, 19674 kPa, m1 = 0.001757	0.000393
523.32 K, 19674 kPa, m1 = 0.004534	0.000408
523.32 K, 19674 kPa, m1 = 0.009517	0.000445
523.32 K, 19674 kPa, m1 = 0.02168	0.000515
523.32 K, 19674 kPa, m1 = 0.04237	0.000632
523.32 K, 19674 kPa, m1 = 0.07216	0.00078
523.32 K, 19674 kPa, m1 = 0.1017	0.000922
547.2 K, 20900 kPa, m1 = 0.0009361	0.000382
547.2 K, 20900 kPa, m1 = 0.002371	0.000395
547.2 K, 20900 kPa, m1 = 0.003744	0.000405
547.2 K, 20900 kPa, m1 = 0.00586	0.000419
547.2 K, 20900 kPa, m1 = 0.008845	0.000439
547.2 K, 20900 kPa, m1 = 0.01163	0.000459
547.2 K, 20900 kPa, m1 = 0.01515	0.000481
547.2 K, 20900 kPa, m1 = 0.02429	0.000535
548.35 K, 19600 kPa, m1 = 0.0008359	0.000374
548.35 K, 19600 kPa, m1 = 0.002368	0.000385
548.35 K, 19600 kPa, m1 = 0.005537	0.000406
548.35 K, 19600 kPa, m1 = 0.01208	0.000447
548.35 K, 19600 kPa, m1 = 0.02063	0.000495
548.35 K, 19600 kPa, m1 = 0.0288	0.000538
548.35 K, 19600 kPa, m1 = 0.04625	0.000617
548.35 K, 19600 kPa, m1 = 0.1015	0.000921
571.07 K, 19463 kPa, m1 = 0.000429	0.000323
571.07 K, 19463 kPa, m1 = 0.001139	0.000331
571.07 K, 19463 kPa, m1 = 0.004203	0.00035
572.82 K, 20769 kPa, m1 = 0.0002704	0.000339
572.82 K, 20769 kPa, m1 = 0.0005746	0.000349
572.82 K, 20769 kPa, m1 = 0.001483	0.000358
572.82 K, 20769 kPa, m1 = 0.00287	0.000369
572.82 K, 20769 kPa, m1 = 0.006337	0.000389
572.82 K, 20769 kPa, m1 = 0.01032	0.000414
572.82 K, 20769 kPa, m1 = 0.01719	0.000445
572.82 K, 20769 kPa, m1 = 0.0361	0.000516
572.82 K, 20769 kPa, m1 = 0.05276	0.000569
597.9 K, 20618 kPa, m1 = 0.0004999	0.000217
597.9 K, 20618 kPa, m1 = 0.0008991	0.000223
597.9 K, 20618 kPa, m1 = 0.001756	0.000227
597.9 K, 20618 kPa, m1 = 0.003156	0.000233
597.9 K, 20618 kPa, m1 = 0.00593	0.000242
597.9 K, 20618 kPa, m1 = 0.01032	0.000257
597.9 K, 20618 kPa, m1 = 0.02561	0.000303
621.13 K, 20620 kPa, m1 = 0.0003582	0.000117
621.13 K, 20620 kPa, m1 = 0.0009385	0.000117
621.13 K, 20620 kPa, m1 = 0.002851	0.00012
621.13 K, 20620 kPa, m1 = 0.00498	0.000125
621.13 K, 20620 kPa, m1 = 0.01107	0.000138
621.13 K, 20620 kPa, m1 = 0.01908	0.000161
